Source: patent US20250114331A1, “CONCURRENT TARGETING OF ONCOGENIC PATHWAYS TO ENHANCE CHEMOTHERAPY AND IMMUNOTHERAPY” (THE JOHNS HOPKINS UNIVERSITY, priority 2021, published 2025)
Entries after “also recorded” stand apart in the source; their conditions may differ. Like-named read-outs stand apart in the source and are kept apart here.

Experiments:
[1] = system: MB49, UPPL596 and BBN 975; assay: Cell derived xenografts treated with verteporfin; type: in vivo, C57BL/6 mice
Procedure: In vivo xenograft assay and treatment. For in vivo xenograft, cells were suspended in 100 μL of a 1:1 mixture of serum-free DMEM and Cultrex Stem Cell Qualified Reduced Growth Factor Basement Membrane Extract (Trevigen, Gaithersburg, USA), and then injected subcutaneously into the both flanks of C57BL/6 mice for MB49/UPPL595/BBN975 cells. For treatment, animals will be randomized to different treatment groups of 5 mice after growth of tumors to 100 mm3. The potential drugs are anti-PD-L1 monoclonal antibody (B7-H1, Bio X Cell, West Lebanon, USA) and verteporfin (NedKoo, Morrisville, USA). Verteporfin (50 mg/kg) will be administered via i.p. every other day. Anti-PD-L1 monoclonal antibody and the corresponding isotype antibody (200 μg/mouse) were administered via ip injection every 3 to 4 days. Treatment was performed for 14 days. To test the pharmacological inhibition of YAP1 on in vivo tumor growth in NSG and immune competent mice, CDXs were developed using three different mouse derived cancer cell lines (MB49, UPPL596 and BBN 975). Verteporfin was administered interperitoneally at a dose of 50 mg/kg body weight at every other day. […] Tumor mass values also indicate similar trend (FIG. 23C-23E; bottom).

[2] = system: H1299 and H1437 cells; assay: Immunoblotting of YAP1, STAT3 and pSTAT3 after drug treatment; type: cell-based, human
Procedure: Western blotting. Cells were dissolved in RIPA buffer (Thermo Fisher Scientific) supplemented with proteinase inhibitor and phosphatase inhibitor cocktails (Roche, Mannheim, Germany). After total protein lysate was electrophoretically transferred onto PVDF membrane, the membrane was blocked with 5% skim milk in 0.05% TBS-Tween buffer and incubated at 4° C. overnight with a primary antibody specific to each protein. The membrane was then probed with an appropriate secondary antibody (Cell Signaling Technology, Danvers, USA). β-actin served as an endogenous control. The primary antibodies and dilution ratios were β-actin (Sigma-Aldrich; #A2228; 1:5000), NANOG (D73G4; Cell Signaling Technology; #4903; 1:1000), OCT4 (D705Z; Cell Signaling Technology; #75463; 1:500), SOX2 (EPR3131; Abcam, Cambridge, UK; #ab92494; 1:500), STAT3 (124H6; Cell Signaling Technology; #9139; 1:2000), pSTAT3 (D3A7; Cell Signaling Technology; #9145; 1:1000) and YAP1 (EP1674Y; Abcam, #ab52771; 1:2000).
To determine doses of these drugs that are effective for pathway inhibition, H1299 and H1437 cells were treated with verteporfin or S3I-201 for 72 hours.

[3] = system: MB49, UPPL595 and BBN975; assay: FABP4 expression and lipid droplet quantification after VP, mouse UCB cell lines; type: cell-based
Procedure: RNA extraction and quantitative reverse transcriptase polymerase chain reaction (Q-RT-PCR). Total RNA from cell lines was isolated using the RNeasy Plus Mini Kit (Qiagen, Germantown, USA), according to the manufacturer's protocol. This total RNA was converted to cDNA using the SuperScript III First-Strand Synthesis System (Life technologies, Carlsbad, USA), which was then used as a template for qRT-PCR. qRT-PCR was performed using the Fast SYBR Green Master Mix (Thermo Fisher Scientific, Waltham, USA) on a Quant studio 6 Fast Real-Time PCR System (Life technologies) in triplicate. SDS software (Applied Biosystems) was used to determine cycle threshold (Ct) values. The expression levels were quantified relative to β-actin using the 2-ΔΔCt method. YAP1 influences the accumulation of lipid droplets in cancer cells. […] Therefore, apart from investigating the altered regulation of intracellular signaling cascades, the present inventors also studied cellular metabolism in response to YAP1 modulation. […] It was reported that FABP4 is a critical molecule in accumulation of lipid droplets in the intracellular compartments (45). […] As increased amount of L-lactate correlated with more glycolysis and poor prognosis of cancer (46), the present inventors quantified L-lactate in mouse and human UCB cells with YAP1 modulation.

[4] = biological target: YAP1 (Homo sapiens, UniProt P46937); details: cited from earlier work
[5] = system: H1299 xenografts; assay: H1299 xenograft treatment; type: in vivo, NSG mice; details: verteporfin 50 mg/kg i.p. three times a week; S3I-201 5 mg/kg i.p. every day
Excerpt: For therapeutic experiments, 4- to 5-week-old NOD/SCID/IL2Ry−/− (NSG) mice were obtained from the Johns Hopkins Medical Institute's (Baltimore, MD) animal care facility. We injected H1299 cells (1×106) and H1437 cells (1×106), which were suspended in the mixture as described above, subcutaneously into both flanks. For the patient-derived xenograft (PDX) models, 13 PDX blocks (CTG0162, 0178, 0502, 0848, 1309, 1351, 1358, 1361, 1762, 1885, 2017, 2481, and 2708) were obtained from Champion Oncology. All these PDXs were established from primary lung adenocarcinoma tumors. The tumor tissues were cut into 4×2 mm pieces and implanted in the subcutaneous spaces of both flanks. When tumor volumes reached to 200+50 mm3, mice were randomly assigned to six experimental groups [control, chemo (cisplatin+gemcitabine), chemo+verteporfin, chemo+S3I-201, “all” (cisplatin+gemcitabine+verteporfin+S3I-201), and verteporfin+S3I-201] at 5 mice per group. Cisplatin (Sigma-Aldrich; #P4394), gemcitabine (Medkoo; #100410), S3I-201 (MedKoo; #202541), and verteporfin (Sigma-Aldrich; #1711461) were used to treat the mice. Cisplatin (2.5 mg/kg) and gemcitabine (120 mg/kg) were administrated via intraperitoneal injection once a week (22). […] Each tumor volume was measured every 3 days. Therapeutic efficacy was evaluated from percentage change of the tumor volume compared with the tumor size before treatment.

Sequence of YAP1 (P46937 whole entry, species assumed): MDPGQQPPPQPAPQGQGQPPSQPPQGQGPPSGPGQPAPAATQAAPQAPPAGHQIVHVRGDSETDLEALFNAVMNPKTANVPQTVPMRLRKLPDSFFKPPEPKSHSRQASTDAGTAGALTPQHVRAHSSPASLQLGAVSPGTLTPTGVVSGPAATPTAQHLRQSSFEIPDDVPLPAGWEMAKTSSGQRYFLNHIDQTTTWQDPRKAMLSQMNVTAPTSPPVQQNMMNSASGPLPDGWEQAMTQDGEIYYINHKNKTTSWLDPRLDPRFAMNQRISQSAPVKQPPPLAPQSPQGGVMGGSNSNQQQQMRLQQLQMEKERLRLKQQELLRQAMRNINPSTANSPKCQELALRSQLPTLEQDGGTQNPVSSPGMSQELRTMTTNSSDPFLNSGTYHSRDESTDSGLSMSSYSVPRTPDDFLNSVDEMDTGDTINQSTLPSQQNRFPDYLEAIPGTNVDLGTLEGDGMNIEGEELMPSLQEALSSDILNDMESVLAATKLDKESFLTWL

With `C=Cc1c(C)c2cc3nc(cc4[nH]c(cc5nc(cc1[nH]2)C(C)=C5CCC(=O)O)c(CCC(=O)OC)c4C)[C@@]1(C)C3=CC=C(C(=O)OC)[C@H]1C(=O)OC` [verteporfin, 3-[(23S,24R)-14-ethenyl-5-(3-methoxy-3-oxopropyl)-22,23-bis(methoxycarbonyl)-4,10,15,24-tetramethyl-25,26,27,28-tetraazahexacyclo[16.6.1.13,6.18,11.113,16.019,24]octacosa-1,3,5,7,9,11(27),12,14,16,18(25),19,21-dodecaen-9-yl]propanoic acid] the tumor growth ([1]; 50 mg/kg body weight i.p. every other day, immune competent mice) was “significant regression in tumor growth”, the “CCN1 and CCN2 expression (YAP1 downstream genes)” value ([1]; RT-qPCR) was “downregulated” and the “YAP1 expression in the tumor tissue” value ([1]; pharmacodynamic analysis) was “decrease YAP1 expression”. For the same molecule, the “STAT3 oligomerization (high molecular weight complexes)” value [2] was “STAT3 oligomerization upon verteporfin treatment in a dose dependent manner; also recorded: high molecular weight complexes (regions surrounded by circles) were increased”, the “YAP1 and total STAT3 protein expression” value [2] was “both YAP1 and total STAT3 expressions were suppressed” and the “YAP1 and total STAT3 protein expression” value ([2]; listed as Verteporfin) was “suppressed YAP1 and STAT3 expressions in H1299 and H1437 cells in a concentration dependent manner”. For the same molecule, the “expression level of FABP4” value [3] was “significantly downregulated”, the “binding to YAP1 and YAP1-TEAD2 interaction” value [4] was “bind to YAP1 and change its conformation, thereby abrogating its interaction with TEAD2” and the tumor growth [5] was “inhibited growth”.
